The values below are quoted from earlier work in USRE50805E1, “Single-layer oral dose of neuro-attenuating ketamine” (ACADIA Pharmaceuticals Inc., priority 2013, dated 2026).

The conditions of series [1]: after oral administration, background statement.
Assay in series [2]: not given
This is another data set of the same source.

Counter-ions that a name gives are not always drawn.

As to `NC1(c2ccccc2Cl)CCCCC1=O` (racemic) [norketamine, (R,S)—2-(2-chlorophenyl)-2-(amino) cyclohexanone], the elimination half-life in series [1] was 4 h.

For the molecule `CNC1(c2ccccc2Cl)CCCCC1=O` (racemic) [ketamine, (R,S)—2-(2-chlorophenyl)-2-(methylamino) cyclohexanone], the elimination half-life in series [1] is 2 to 3 h. Also, the “optimal efficacy plasma concentration” value (exceeding it leads to more pronounced side effects) is 10 to 300 ng/mL. In addition, the “blood concentration level above which side effects may become more pronounced” value (in vivo) is on record as “above 300 ng/L”. For `CNC1(c2ccccc2Cl)CCCCC1=O` (centres unmarked) [ketamine hydrochloride], in series [2], the solubility in water entry was “about 200 mg/ml”.
